Row | melting point | Compound
1 | 83 to 85 °C | CC(C)CC(C)c1ccccc1NC(=O)c1cn(C)cc1C(F)(F)F (centres unmarked)
2 | 75 to 77 °C | COCn1cc(C(=O)Nc2ccccc2C(C)CC(C)C)c(C(F)(F)F)c1 (centres unmarked)
